# Experimental data as given in patent US11466012B2, “Tetrahydroisoquinoline compounds” (ALLINKY BIOPHARMA, priority 2018, dated 2022).
# Tests used:
# Assay type in all cases: cell-based
# [1] = system: A549 lung carcinoma cell line bearing KRas^G12S oncogenic mutation; test: Cell proliferation inhibition (MTS), A549; conditions: Homo sapiens
# Method: (§1) • Cell line #1: A549. Lung carcinoma cell line bearing KRas^G12S oncogenic mutation • Cell line #2: H358. non-small cell lung cancer line bearing KRas^G12C oncogenic mutation • Cell line #3: PANC-1. epithelioid carcinoma of the pancreas cell line bearing KRas^G12D oncogenic mutation • Cell line #4: RPMI. myeloma cell line bearing KRas^G12A oncogenic mutation
# (§2) Cell lines were cultured in DMEM or RPMI-1640 supplemented with FBS 10%. In order to assess the antiproliferative effect of compounds, cells were seeded at a density of 1.8×10^3, 6.2×10^3, 7.8×10^3, 21×10^3 and 2×10^3 cells/cm^2, respectively, in tissue culture microplates and were incubated in humidified atmosphere at 5% CO2. 24 h later, compounds dissolved in DMSO 100% were added for different final concentrations ranging between 0.1 and 50 μM for a final DMSO concentration of 0.5% and the plates were incubated for another 72 h. After incubation, proliferation was quantified using CellTiter 96® Aqueous Non-Radioactive Cell Proliferation Assay-MTS (Promega #G5421) following manufacturer instructions. Amount of 490 nm absorbance is directly proportional to the number of living cells. Absorbance was recorded with a BMG Fluostar Optima Microplate Reader and normalized to control with vehicle.
# [2] = system: RPMI-8226 myeloma cell line bearing KRas^G12A oncogenic mutation; test: Cell proliferation inhibition (MTS), RPMI-8226; conditions: Homo sapiens
# Method: as §1, §2
# [3] = system: H358 non-small cell lung cancer line bearing KRas^G12C oncogenic mutation; test: Cell proliferation inhibition (MTS), H358; conditions: Homo sapiens, NCI-H358
# Method: as §1, §2
# [4] = system: PANC-1 epithelioid carcinoma of the pancreas cell line bearing KRas^G12D oncogenic mutation; test: Cell proliferation inhibition (MTS), PANC-1; conditions: Homo sapiens
# Method: as §1, §2
# [5] = 72 h incubation, MTS, compounds 1-53, median from experimental results
# [6] = compounds 54-63, based on estimations and/or preliminary experimental results
Structure (SMILES),"IC50 [1, 5]","IC50 [2, 5]","IC50 [3, 5]","IC50 [4, 5]","IC50 [1, 6]","IC50 [2, 6]","IC50 [3, 6]","IC50 [4, 6]"
CCC(=O)CCN1CCc2cc(OC)c(OCc3cccc(O)c3)cc2C1c1ccc(C)cc1Cl (centres unmarked) [Compound 2],8250 nM,1800 nM,12100 nM,17300 nM,,,,
COc1cc2c(cc1OCCc1cccc(OC(C)=O)c1)C(c1ccc(C)cc1C)N(C(=O)NCc1cocn1)CC2 (centres unmarked) [Compound 3],1970 nM,1210 nM,1660 nM,1590 nM,,,,
CCC(=O)CCN1CCc2cc(OC)c(OCC(=O)c3cccc(C(=O)OC)c3)cc2C1c1ccc(C)cc1Cl (centres unmarked) [Compound 4],10100 nM,2670 nM,> 20000 nM,29700 nM,,,,
COc1cc2c(cc1OCCc1cccc(O)c1)C(c1c(O)cc(C)cc1Cl)N(CCC(C)=O)CC2 (centres unmarked) [Compound 5],4820 nM,1510 nM,> 20000 nM,> 30000 nM,,,,
CCC(=O)CCN1CCc2cc(OC)c(OCCc3cccc(O)c3)cc2C1c1ccc(C)cc1C (centres unmarked) [Compound 7],6340 nM,2410 nM,18100 nM,24800 nM,,,,
CCC(=O)CCN1CCc2cc(OC)c(OCCc3cccc(O)c3)cc2C1c1ccc(OC)c(OC)c1Cl (centres unmarked) [Compound 8],4110 nM,2110 nM,11200 nM,11100 nM,,,,
CCC(=O)CCN1CCc2cc(OC)c(OCCc3cccc(O)c3)cc2C1c1ccccc1C (centres unmarked) [Compound 9],3650 nM,740 nM,19000 nM,24500 nM,,,,
COc1cc2c(cc1OCCc1cccc(O)c1)C(c1c(C)cc(C)cc1O)N(CCC(C)=O)CC2 (centres unmarked) [Compound 10],15900 nM,860 nM,19800 nM,15000 nM,,,,
COc1ccc(C2c3cc(OCCc4cccc(O)c4)c(OC)cc3CCN2CCC(C)=O)c(C)c1 (centres unmarked) [Compound 11],18000 nM,1470 nM,8520 nM,12300 nM,,,,
CCC(=O)CN1CCc2cc(OC)c(OCCc3cccc(O)c3)cc2C1c1ccc(C)cc1Cl (centres unmarked) [Compound 12],8990 nM,4980 nM,16800 nM,13600 nM,,,,
COc1cc2c(cc1OCCc1cccc(O)c1)C(c1ccc(C)cc1Cl)N(C(=O)NCc1ccncc1)CC2 (centres unmarked) [Compound 13],9370 nM,2860 nM,15800 nM,12600 nM,,,,
COc1cc2c(cc1OCCc1ccc3c(c1)CCC3)C(c1ccc(C)cc1C)N(C(=O)NCc1ccncc1)CC2 (centres unmarked) [Compound 14],> 10000 nM,3940 nM,> 10000 nM,> 30000 nM,,,,
COc1cc2c(cc1OCCc1ccc3c(c1)CCO3)C(c1ccc(C)cc1C)N(C(=O)NCc1ccncc1)CC2 (centres unmarked) [Compound 15],2140 nM,890 nM,2580 nM,2130 nM,,,,
COc1cc2c(cc1OCCc1cccc(O)c1)C(c1ccc(C)cc1C)N(C(=O)NCc1ccncc1)CC2 (centres unmarked) [Compound 16],> 5000 nM,480 nM,7240 nM,12000 nM,,,,
COc1cc2c(cc1OCCc1cccc(O)c1)C(c1ccc(C)cc1C)N(C(=O)NCc1cncs1)CC2 (centres unmarked) [Compound 19],950 nM,2930 nM,680 nM,570 nM,,,,
COc1cc2c(cc1OCCc1cccc(O)c1)C(c1ccc(C)cc1C)N(C(=O)NCc1ccccn1)CC2 (centres unmarked) [Compound 20],750 nM,600 nM,480 nM,560 nM,,,,
COc1cc2c(cc1OCCc1cccc(F)c1)C(c1ccc(C)cc1C)N(C(=O)NCc1cocn1)CC2 (centres unmarked) [Compound 21],1330 nM,900 nM,780 nM,810 nM,,,,
COc1cc2c(cc1OCCc1ccccc1)C(c1ccc(C)cc1C)N(C(=O)NCc1cocn1)CC2 (centres unmarked) [Compound 22],890 nM,820 nM,650 nM,600 nM,,,,
Cc1ccc(C2c3cc(OCCc4cccc(O)c4)c(C(N)=O)cc3CCN2C(=O)NCc2cocn2)c(C)c1 (centres unmarked) [Compound 24],740 nM,870 nM,840 nM,660 nM,,,,
Cc1ccc(C2c3cc(OCCc4cccc(O)c4)c(O)cc3CCN2C(=O)NCc2cocn2)c(C)c1 (centres unmarked) [Compound 25],550 nM,580 nM,520 nM,530 nM,,,,
COc1cc2c(cc1OCCc1cccc(C(N)=O)c1)C(c1ccc(C)cc1C)N(C(=O)NCc1cocn1)CC2 (centres unmarked) [Compound 27],1020 nM,980 nM,1120 nM,1330 nM,,,,
Cc1ccc(C2c3cc(OCCc4cccc(C(N)=O)c4)c(C(N)=O)cc3CCN2C(=O)NCc2cocn2)c(C)c1 (centres unmarked) [Compound 28],1560 nM,1020 nM,1230 nM,2010 nM,,,,
COc1cc2c(cc1OCCc1cccc(O)c1)C(c1ccc(C)cc1Cl)N(C(=O)NCc1cocn1)CC2 (centres unmarked) [Compound 29],760 nM,690 nM,960 nM,680 nM,,,,
COc1cc2c(cc1OCCc1cccc(C(=O)O)c1)C(c1ccc(C)cc1C)N(C(=O)NCc1cocn1)CC2 (centres unmarked) [Compound 31],2070 nM,1910 nM,2110 nM,1830 nM,,,,
Cc1ccc(C2c3cc(OCCc4cccc(O)c4)c(C(=O)O)cc3CCN2C(=O)NCc2cocn2)c(C)c1 (centres unmarked) [Compound 32],440 nM,520 nM,310 nM,490 nM,,,,
"Cc1ccc(C2c3cc(OCCc4cccnc4)c(C(N)=O)cc3CCN2C(=O)NCc2cocn2)c(C)c1 (centres unmarked) [Compound 34, 1-(2,4-dimethylphenyl)-N2-(oxazol-4-ylmethyl)-7-(2-(pyridin-3-yl)ethoxy)-3,4-dihydroisoquinoline-2,6(1H)-dicarboxamide]",430 nM,720 nM,390 nM,420 nM,,,,
Cc1ccc(C2c3cc(OCCc4cccnc4)c(C(=O)O)cc3CCN2C(=O)NCc2cocn2)c(C)c1 (centres unmarked) [Compound 35],330 nM,320 nM,510 nM,430 nM,,,,

# Continued, values first:
"IC50 [1, 5]","IC50 [2, 5]","IC50 [3, 5]","IC50 [4, 5]","IC50 [1, 6]","IC50 [2, 6]","IC50 [3, 6]","IC50 [4, 6]",Structure (SMILES)
730 nM,990 nM,910 nM,670 nM,,,,,Cc1ccc(C2c3cc(OCCc4cccnc4)c(NC=O)cc3CCN2C(=O)NCc2cocn2)c(C)c1 (centres unmarked) [Compound 36]
810 nM,1210 nM,710 nM,740 nM,,,,,CC(=O)Nc1cc2c(cc1OCCc1cccnc1)C(c1ccc(C)cc1C)N(C(=O)NCc1cocn1)CC2 (centres unmarked) [Compound 37]
430 nM,220 nM,1090 nM,420 nM,,,,,Cc1ccc(C2c3cc(OCCc4cccnc4)c(Cl)cc3CCN2C(=O)NCc2cocn2)c(C)c1 (centres unmarked) [Compound 38]
340 nM,410 nM,520 nM,470 nM,,,,,CC(=O)c1cc2c(cc1OCCc1cccnc1)C(c1ccc(C)cc1C)N(C(=O)NCc1cocn1)CC2 (centres unmarked) [Compound 39]
820 nM,1330 nM,960 nM,810 nM,,,,,CC(=O)Cc1cc2c(cc1OCCc1cccnc1)C(c1ccc(C)cc1C)N(C(=O)NCc1cocn1)CC2 (centres unmarked) [Compound 40]
1270 nM,1380 nM,1140 nM,2110 nM,,,,,Cc1ccc(C2c3cc(OCCc4cccnc4)c(CO)cc3CCN2C(=O)NCc2cocn2)c(C)c1 (centres unmarked) [Compound 41]
740 nM,610 nM,910 nM,880 nM,,,,,Cc1ccc(C2c3cc(OCCc4cccnc4)ccc3CCN2C(=O)NCc2cocn2)c(C)c1 (centres unmarked) [Compound 43]
1720 nM,990 nM,1010 nM,1000 nM,,,,,Cc1ccc(C2c3cc(OCCc4cccnc4)c(F)cc3CCN2C(=O)NCc2cocn2)c(C)c1 (centres unmarked) [Compound 44]
790 nM,890 nM,990 nM,870 nM,,,,,C=CC(=O)Nc1cc2c(cc1OCCc1cccnc1)C(c1ccc(C)cc1C)N(C(=O)NCc1cocn1)CC2 (centres unmarked) [Compound 45]
1500 nM,1500 nM,1200 nM,1500 nM,,,,,COc1cc2c(cc1OCCc1cccc(NC(C)=O)c1)C(c1ccc(C)cc1C)N(C(=O)NCc1cocn1)CC2 (centres unmarked) [Compound 47]
> 1000 nM,> 1000 nM,> 1000 nM,> 1000 nM,,,,,COc1cc2c(cc1OCCc1ccccn1)C(c1ccc(C)cc1C)N(C(=O)NCc1cocn1)CC2 (centres unmarked) [Compound 49]
600 nM,700 nM,600 nM,500 nM,,,,,COc1cc2c(cc1OCCc1cnccn1)C(c1ccc(C)cc1C)N(C(=O)NCc1ccon1)CC2 (centres unmarked) [Compound 52]
600 nM,500 nM,700 nM,700 nM,,,,,COc1cc2c(cc1OCCc1cnccn1)C(c1ccc(C)cc1C)N(C(=O)NCc1cocn1)CC2 (centres unmarked) [Compound 53]
,,,,600 nM,500 nM,700 nM,700 nM,COc1cncc(CCOc2cc3c(cc2OC)CCN(C(=O)NCc2cocn2)C3c2ccc(C)cc2C)n1 (centres unmarked) [Compound 54]
